{
  "source": "patent US8372967B2",
  "about": "“Compounds and methods for modulating expression of GCCR” (Isis Pharmaceuticals, Inc., priority 2006, dated 2013)",
  "key": {"[1]": {"experiment": "Triglyceride, cholesterol and glucose levels, pre-bleed and post-bleed, GCGR study (Table 34)", "type": "in vivo, mouse", "details": "C57/BL6 mice, 48 hours after single i.p. dose", "experimental": "Eight-week old male C57/BL6 mice (Jackson Laboratory, Bar Harbor, Me.) were administered a single dose of GCGR oligonucleotide by intraperitoneal injection at a concentration of […]. Each dose group consisted of four animals. Shown in Table 31 are the sequences, motifs and conjugates of the GCGR antisense compounds used in this study. Bolded residues indicate 2′-O-methoxyethyl (2′-MOE) moieties. All compounds comprise phosphorothioate internucleoside linkages throughout and each cytosine is replaced with 5-methylcytosine. ISIS 386626, ISIS 386627 and ISIS 386628 further comprise a C16 conjugate group attached to the 2′-O position of the sugar via a diamide linkage (2′-OCH2C(═O)N(H)(CH2)4N(H)C(═O)—(CH2)15CH3). GCGR antisense compounds target published GCGR sequences, including Genbank® Accession No. BC031885.1 (SEQ ID NO: 7).\nMice were sacrificed 48 hours following injection to determine serum transaminase levels (Table 32); liver, white adipose tissue (WAT), spleen and kidney weight (Table 33); cholesterol, triglyceride and glucose levels (Table 34); GCGR mRNA levels (Tables 35-41); and full-length and total oligonucleotide concentration in liver and kidney (Table 42). Endpoints were assessed using methods described herein and well known to those of ordinary skill in the art. Data is included from a pre-treatment bleed (Pre-Bleed) and post-treatment bleed (Post-Bleed)."}, "PTP1B mRNA": {"test_system": "PTP1B mRNA", "experiment": "Dose response for human PTP1B in HuVEC cells, PPS 198 and PPS 3000 (Tables 86, 87)", "type": "cell-based", "experimental": "Human vascular endothelial (HuVEC) cells were plated at a density of 5000 cells per well and treated as described herein with nM concentrations of short antisense compound as indicated in Table 86. After the treatment period, RNA was isolated from the cells and PTP1B mRNA levels were measured by quantitative real-time PCR, as described herein. PTP1B mRNA levels were adjusted according to total RNA content as measured by RIBOGREEN®. Two different human PTP1B primer probe sets were used to measure mRNA levels. Results with Primer Probe Set (PPS) 198 are shown in Table 86, and results with Primer Probe Set (PPS) 3000 are shown in Table 87. Results are presented as percent inhibition of PTP1B mRNA expression relative to untreated control cells."}},
  "note": "Strand notation (5' to 3'): a small letter for the sugar, then the base; units joined by * are phosphorothioate-linked, units joined directly phosphodiester-linked; [ ] holds rarer units or linkages, { } end groups; capitals alone tell only the bases. e = 2'-O-(2-methoxyethyl) (MOE); [5mC] = 5-methylcytosine; d = 2'-deoxy (DNA)",
  "data": [
    {"substance": "ISIS 386628: GCGR short antisense compound with C16 conjugate group at 2′-O via diamide linkage (TGTCTTGCTGCTTT; chemistry not fully specified)", "values": [
      {"measurement": "Glucose levels (post-bleed)", "setting": "[1]", "result": "decrease in post-bleed glucose levels"}
    ]},
    {"substance": "399096 (eT*eG*d[5mC]*dT*d[5mC]*dG*dA*dA*d[5mC]*dT*d[5mC]*d[5mC]*eT*eT; antisense) [compound 399096]", "values": [
      {"measurement": "% Inhibition", "setting": "PTP1B mRNA; PPS 198, 1.11 nM", "result": 3, "unit": "%"},
      {"measurement": "% Inhibition", "setting": "PTP1B mRNA; PPS 198, 3.33 nM", "result": 30, "unit": "%"},
      {"measurement": "% Inhibition", "setting": "PTP1B mRNA; PPS 198, 10.0 nM", "result": 78, "unit": "%"},
      {"measurement": "% Inhibition", "setting": "PTP1B mRNA; PPS 198, 30.0 nM", "result": 96, "unit": "%"},
      {"measurement": "% Inhibition", "setting": "PTP1B mRNA; PPS 3000, 1.11 nM", "result": 0, "unit": "%"},
      {"measurement": "% Inhibition", "setting": "PTP1B mRNA; PPS 3000, 3.33 nM", "result": 23, "unit": "%"},
      {"measurement": "% Inhibition", "setting": "PTP1B mRNA; PPS 3000, 10.0 nM", "result": 75, "unit": "%"},
      {"measurement": "% Inhibition", "setting": "PTP1B mRNA; PPS 3000, 30.0 nM", "result": 94, "unit": "%"}
    ]},
    {"substance": "398105 (eT*eG*d[5mC]*dA*d[5mC]*dA*dG*dG*d[5mC]*dA*dG*dG*eT*eT) [compound 398105]", "values": [
      {"measurement": "% Inhibition", "setting": "PTP1B mRNA; PPS 198, 1.11 nM", "result": 0, "unit": "%"},
      {"measurement": "% Inhibition", "setting": "PTP1B mRNA; PPS 198, 3.33 nM", "result": 25, "unit": "%"},
      {"measurement": "% Inhibition", "setting": "PTP1B mRNA; PPS 198, 10.0 nM", "result": 79, "unit": "%"},
      {"measurement": "% Inhibition", "setting": "PTP1B mRNA; PPS 198, 30.0 nM", "result": 90, "unit": "%"},
      {"measurement": "% Inhibition", "setting": "PTP1B mRNA; PPS 3000, 1.11 nM", "result": 0, "unit": "%"},
      {"measurement": "% Inhibition", "setting": "PTP1B mRNA; PPS 3000, 3.33 nM", "result": 35, "unit": "%"},
      {"measurement": "% Inhibition", "setting": "PTP1B mRNA; PPS 3000, 10.0 nM", "result": 79, "unit": "%"},
      {"measurement": "% Inhibition", "setting": "PTP1B mRNA; PPS 3000, 30.0 nM", "result": 93, "unit": "%"}
    ]},
    {"substance": "398112 (e[5mC]*eA*dG*d[5mC]*d[5mC]*dT*dG*dG*d[5mC]*dA*d[5mC]*d[5mC]*eT*eA) [compound 398112]", "values": [
      {"measurement": "% Inhibition", "setting": "PTP1B mRNA; PPS 198, 1.11 nM", "result": 1, "unit": "%"},
      {"measurement": "% Inhibition", "setting": "PTP1B mRNA; PPS 198, 3.33 nM", "result": 10, "unit": "%"},
      {"measurement": "% Inhibition", "setting": "PTP1B mRNA; PPS 198, 10.0 nM", "result": 73, "unit": "%"},
      {"measurement": "% Inhibition", "setting": "PTP1B mRNA; PPS 198, 30.0 nM", "result": 93, "unit": "%"},
      {"measurement": "% Inhibition", "setting": "PTP1B mRNA; PPS 3000, 1.11 nM", "result": 0, "unit": "%"},
      {"measurement": "% Inhibition", "setting": "PTP1B mRNA; PPS 3000, 3.33 nM", "result": 26, "unit": "%"},
      {"measurement": "% Inhibition", "setting": "PTP1B mRNA; PPS 3000, 10.0 nM", "result": 77, "unit": "%"},
      {"measurement": "% Inhibition", "setting": "PTP1B mRNA; PPS 3000, 30.0 nM", "result": 94, "unit": "%"}
    ]},
    {"substance": "399276 (eG*eA*dG*dG*dT*dA*dT*d[5mC]*d[5mC]*d[5mC]*dA*dT*e[5mC]*eT; antisense) [compound 399276]", "values": [
      {"measurement": "% Inhibition", "setting": "PTP1B mRNA; PPS 198, 1.11 nM", "result": 0, "unit": "%"},
      {"measurement": "% Inhibition", "setting": "PTP1B mRNA; PPS 198, 3.33 nM", "result": 8, "unit": "%"},
      {"measurement": "% Inhibition", "setting": "PTP1B mRNA; PPS 198, 10.0 nM", "result": 61, "unit": "%"},
      {"measurement": "% Inhibition", "setting": "PTP1B mRNA; PPS 198, 30.0 nM", "result": 89, "unit": "%"},
      {"measurement": "% Inhibition", "setting": "PTP1B mRNA; PPS 3000, 1.11 nM", "result": 0, "unit": "%"},
      {"measurement": "% Inhibition", "setting": "PTP1B mRNA; PPS 3000, 3.33 nM", "result": 14, "unit": "%"},
      {"measurement": "% Inhibition", "setting": "PTP1B mRNA; PPS 3000, 10.0 nM", "result": 64, "unit": "%"},
      {"measurement": "% Inhibition", "setting": "PTP1B mRNA; PPS 3000, 30.0 nM", "result": 86, "unit": "%"}
    ]},
    {"substance": "398120 (eG*eT*dT*d[5mC]*dA*dA*dG*d[5mC]*dG*dG*d[5mC]*d[5mC]*eT*eA) [compound 398120]", "values": [
      {"measurement": "% Inhibition", "setting": "PTP1B mRNA; PPS 198, 1.11 nM", "result": 0, "unit": "%"},
      {"measurement": "% Inhibition", "setting": "PTP1B mRNA; PPS 198, 3.33 nM", "result": 31, "unit": "%"},
      {"measurement": "% Inhibition", "setting": "PTP1B mRNA; PPS 198, 10.0 nM", "result": 80, "unit": "%"},
      {"measurement": "% Inhibition", "setting": "PTP1B mRNA; PPS 198, 30.0 nM", "result": 96, "unit": "%"},
      {"measurement": "% Inhibition", "setting": "PTP1B mRNA; PPS 3000, 1.11 nM", "result": 0, "unit": "%"},
      {"measurement": "% Inhibition", "setting": "PTP1B mRNA; PPS 3000, 3.33 nM", "result": 35, "unit": "%"},
      {"measurement": "% Inhibition", "setting": "PTP1B mRNA; PPS 3000, 10.0 nM", "result": 79, "unit": "%"},
      {"measurement": "% Inhibition", "setting": "PTP1B mRNA; PPS 3000, 30.0 nM", "result": 93, "unit": "%"}
    ]},
    {"substance": "398173 (e[5mC]*dA*dG*d[5mC]*d[5mC]*dT*dG*dG*dG*d[5mC]*dA*e[5mC]) [compound 398173]", "values": [
      {"measurement": "% Inhibition", "setting": "PTP1B mRNA; PPS 198, 1.11 nM", "result": 0, "unit": "%"},
      {"measurement": "% Inhibition", "setting": "PTP1B mRNA; PPS 198, 3.33 nM", "result": 4, "unit": "%"},
      {"measurement": "% Inhibition", "setting": "PTP1B mRNA; PPS 198, 10.0 nM", "result": 80, "unit": "%"},
      {"measurement": "% Inhibition", "setting": "PTP1B mRNA; PPS 198, 30.0 nM", "result": 97, "unit": "%"},
      {"measurement": "% Inhibition", "setting": "PTP1B mRNA; PPS 3000, 1.11 nM", "result": 0, "unit": "%"},
      {"measurement": "% Inhibition", "setting": "PTP1B mRNA; PPS 3000, 3.33 nM", "result": 18, "unit": "%"},
      {"measurement": "% Inhibition", "setting": "PTP1B mRNA; PPS 3000, 10.0 nM", "result": 80, "unit": "%"},
      {"measurement": "% Inhibition", "setting": "PTP1B mRNA; PPS 3000, 30.0 nM", "result": 90, "unit": "%"}
    ]}
  ]
}
